Experimental data reported in patent US20240158446A1, “CYCLIC COMPOUND HAVING SELECTIVE INHIBITORY ACTION ON KRAS OVER HRAS AND NRAS” (CHUGAI SEIYAKU KABUSHIKI KAISHA, priority 2021, published 2024).
Like-named read-outs stand apart in the source and are kept apart here.

Experiments:
[1] = tested on: human lung cancer strain NCI-H441;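 further: cell proliferation inhibition after four days measured by CellTiter-Glo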
[2] = biological target: GDP-bound KRAS wild-type protein (Homo sapiens, UniProt P01116); assay: Binding to KRAS by surface plasmon resonance (SPR), Single Cycle Kinetics; conditions: GDP-bound KRAS wild-type protein, read-out: KRAS KD
Sequence of GDP-bound KRAS wild-type protein (P01116 whole entry): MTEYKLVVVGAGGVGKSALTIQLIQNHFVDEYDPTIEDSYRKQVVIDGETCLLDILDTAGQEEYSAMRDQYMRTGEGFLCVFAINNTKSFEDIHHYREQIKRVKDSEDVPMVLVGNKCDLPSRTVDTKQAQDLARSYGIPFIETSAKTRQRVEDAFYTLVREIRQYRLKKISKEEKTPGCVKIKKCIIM

[3] = biological target: GDP-bound HRAS wild-type protein (Homo sapiens, UniProt P01112); assay: Binding to HRAS by surface plasmon resonance (SPR), Single Cycle Kinetics; conditions: for HRAS/KRAS (ratio of KD value with respect to GDP-bound HRAS wild-type protein to KD value with respect to KRAS): SPR KD ratio HRAS/KRAS, class symbols; for HRAS/KRAS (ratio of KD value for HRAS to KD value for KRAS): SPR, GDP-bound HRAS wild-type protein vs GDP-bound KRAS wild-type protein
Sequence of GDP-bound HRAS wild-type protein (P01112 whole entry): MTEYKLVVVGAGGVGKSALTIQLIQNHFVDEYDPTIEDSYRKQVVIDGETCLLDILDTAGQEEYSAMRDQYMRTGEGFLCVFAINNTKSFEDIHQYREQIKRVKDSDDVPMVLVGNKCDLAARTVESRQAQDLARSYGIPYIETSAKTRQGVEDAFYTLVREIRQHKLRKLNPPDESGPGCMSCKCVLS

[4] = biological target: GDP-bound NRAS wild-type protein (Homo sapiens, UniProt P01111); assay: Binding to NRAS by surface plasmon resonance (SPR), Single Cycle Kinetics; conditions: for NRAS/KRAS (ratio of KD value with respect to GDP-bound NRAS wild-type protein to KD value with respect to KRAS): SPR KD ratio NRAS/KRAS, class symbols; for NRAS/KRAS (ratio of KD value for NRAS to KD value for KRAS): SPR, GDP-bound NRAS wild-type protein vs GDP-bound KRAS wild-type protein
Sequence of GDP-bound NRAS wild-type protein (P01111 whole entry): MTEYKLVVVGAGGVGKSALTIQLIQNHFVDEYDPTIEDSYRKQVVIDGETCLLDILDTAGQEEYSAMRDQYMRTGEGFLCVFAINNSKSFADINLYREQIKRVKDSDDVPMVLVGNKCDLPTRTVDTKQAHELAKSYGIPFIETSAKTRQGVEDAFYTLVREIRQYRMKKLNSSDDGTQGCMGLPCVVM

[5] = SPR Single Cycle Kinetics, 1:1 binding model
[6] = SPR, Single Cycle Kinetics, 1:1 binding model

Compound	IC50 [1] [nM]	Kd [2, 5] [nM]	HRAS/KRAS (ratio of KD value with respect to GDP-bound HRAS wild-type protein to KD value with respect to KRAS) [3]	NRAS/KRAS (ratio of KD value with respect to GDP-bound NRAS wild-type protein to KD value with respect to KRAS) [4]	Kd [2, 6] [nM]	HRAS/KRAS (ratio of KD value for HRAS to KD value for KRAS) ([3]; KD ratio class)	NRAS/KRAS (ratio of KD value for NRAS to KD value for KRAS) ([4]; KD ratio class)	Kd ([2]; SPR, Single Cycle Kinetics) [nM]	HRAS/KRAS (ratio of KD value for HRAS to KD value for KRAS) [3]	NRAS/KRAS (ratio of KD value for NRAS to KD value for KRAS) [4]
CCC[C@H]1C(=O)N[C@@H]([C@@H](C)CC)C(=O)N2CCC[C@H]2C(=O)N(C)[C@H]2C/C=C\CCN(C2=O)[C@@H](Cc2ccc(C(F)F)cc2)C(=O)N(C)CC(=O)N[C@@H](CCc2ccc(Cl)c(Cl)c2)C(=O)N2C[C@H](OCC)C[C@H]2C(=O)NC2(CC(C)(C)C2)C(=O)N(C)[C@@H](C(CC)CC)C(=O)N(C)[C@H](C(=O)N(C)C)CC(=O)N1C [PP2637]	61.4	1	A (a compound having 10 or more and less than 20 is denoted as A)	AA (a compound having 20 or more is denoted as AA)						
CCO[C@@H]1C[C@H]2C(=O)NC3(CCC3)C(=O)N(C)[C@@H](C3CCCC3)C(=O)N(C)[C@H](C(=O)N(C)C)CC(=O)N(C)[C@@H](CC3CC3)C(=O)N[C@@H]([C@@H](C)CC)C(=O)N(C)CC(=O)N(C)[C@H]3C/C=C\CCN(C3=O)[C@@H](Cc3ccc(C(F)(F)F)cc3)C(=O)N(C)CC(=O)N[C@@H](CCc3ccc4sccc4c3)C(=O)N2C1 [PP1260]	60.4				0.37	A (a compound having 10 or more and less than 20 is denoted as A)	A (a compound having 10 or more and less than 20 is denoted as A)			
CCO[C@@H]1C[C@H]2C(=O)NC3(CCC3)C(=O)N(C)[C@@H](C3CCCC3)C(=O)N(C)[C@H](C(=O)N(C)C)CC(=O)N(C)[C@@H](CC)C(=O)N[C@@H]([C@@H](C)CC)C(=O)N(C)CC(=O)N(C)[C@H]3C/C=C\CCN(C3=O)[C@@H](Cc3ccc(C(F)(F)F)cc3)C(=O)N(C)CC(=O)N[C@@H](CCc3cc(F)c(Cl)c(F)c3)C(=O)N2C1 [PP1262]	56.7				0.24	B (a compound having 3 or more and less than 10 is denoted as B)	A (a compound having 10 or more and less than 20 is denoted as A)			
CCC(CC)[C@H]1C(=O)N(C)[C@H](C(=O)N(C)C)CC(=O)N(C)[C@@H](COC)C(=O)N[C@@H]([C@@H](C)CC)C(=O)N(C2CC2)CC(=O)N(C)[C@H]2C/C=C\CCN(C2=O)[C@@H](CC2CCC(F)(F)CC2)C(=O)N(C)CC(=O)N[C@@H](CCc2ccc(Cl)c(Cl)c2)C(=O)N2C[C@H](OC(C)C)C[C@H]2C(=O)NC2(CC(C)(C)C2)C(=O)N1C [PP2525]	142	3.8	A (a compound having 10 or more and less than 20 is denoted as A)	AA (a compound having 20 or more is denoted as AA)						
CC[C@H](C)[C@@H]1NC(=O)[C@H](COC)N(C)C(=O)C[C@@H](C(=O)N(C)C)N(C)C(=O)[C@H](C2CCCC2)N(C)C(=O)C2(CC(C)(C)C2)NC(=O)[C@@H]2C[C@H](C)CN2C(=O)[C@H](CCc2ccc(C(F)(F)F)c(OC)c2)NC(=O)CN(C)C(=O)[C@H](Cc2ccc(C)cc2)N2CC/C=C\C[C@@H](C2=O)N(C)C(=O)CN(C)C1=O [PP2385]	7.8							0.12	B (a compound having 3 or more and less than 10 is denoted as B)	A (a compound having 10 or more and less than 20 is denoted as A)
CCCOC[C@H]1C(=O)N[C@@H]([C@@H](C)CC)C(=O)N(C)CC(=O)N(C)[C@H]2C/C=C\CCN(C2=O)[C@@H](Cc2ccc(C)cc2)C(=O)N(C)CC(=O)N[C@@H](CCc2ccc(C(F)(F)F)c(OC)c2)C(=O)N2C[C@H](OCC)C[C@H]2C(=O)NC2(CC(C)(C)C2)C(=O)N(C)[C@@H](C2CCCC2)C(=O)N(C)[C@H](C(=O)N(C)C)CC(=O)N1C [PP2449]	7.8							0.061	A (a compound having 10 or more and less than 20 is denoted as A)	A (a compound having 10 or more and less than 20 is denoted as A)
CC[C@H](C)[C@@H]1NC(=O)[C@H](COC)N(C)C(=O)C[C@@H](C(=O)N(C)C)N(C)C(=O)[C@H](C2CCCC2)N(C)C(=O)C2(CC(C)(C)C2)NC(=O)[C@@H]2C[C@H](C)CN2C(=O)[C@H](CCc2ccc(C(F)(F)F)c(Cl)c2)NC(=O)CN(C)C(=O)[C@H](Cc2ccc(C)cc2)N2CC/C=C\C[C@@H](C2=O)N(C)C(=O)CN(C)C1=O [PP2502]	7.9							0.065	A (a compound having 10 or more and less than 20 is denoted as A)	A (a compound having 10 or more and less than 20 is denoted as A)
CCC[C@H]1C(=O)N[C@@H](CC(C)C)C(=O)N(CC)CC(=O)N(C)[C@H]2C/C=C\CCN(C2=O)[C@@H](Cc2ccc(C)cc2)C(=O)N(C)CC(=O)N[C@@H](CCc2ccc(C(F)(F)F)c(Cl)c2)C(=O)N2C[C@H](OCC)C[C@H]2C(=O)NC2(CCC2)C(=O)N(C)[C@@H](C2CCCC2)C(=O)N(C)[C@H](C(=O)N(C)C)CC(=O)N1C [PP2545]	279	4.3	A (a compound having 10 or more and less than 20 is denoted as A)	A (a compound having 10 or more and less than 20 is denoted as A)						
CCO[C@@H]1C[C@H]2C(=O)N(C)C3(CC(C)(C)C3)C(=O)N(C)[C@@H](C3CCCC3)C(=O)N(C)[C@H](C(=O)N(C)C)CC(=O)N(C)[C@H]3CCC/C=C/c4ccc(cc4)C[C@@H](C(=O)N(C)CC(=O)N[C@@H](CCc4ccc(Cl)c(Cl)c4)C(=O)N2C1)N1CC/C=C\C[C@@H](C1=O)N(C)C(=O)CN(C)C(=O)[C@H]([C@@H](C)CC)NC3=O [PP3059]	2.1							0.055	A (a compound having 10 or more and less than 20 is denoted as A)	A (a compound having 10 or more and less than 20 is denoted as A)
CCO[C@@H]1C[C@H]2C(=O)NC3(CCC3)C(=O)N(C)[C@@H](C3CCCC3)C(=O)N(C)[C@H](C(=O)N3CCCC3)CC(=O)N(C)[C@@H](CC(C)C)C(=O)N[C@@H]([C@@H](C)CC)C(=O)N(C)CC(=O)N(C)[C@H]3C/C=C\CCN(C3=O)[C@@H](Cc3ccc(C)cc3)C(=O)N(C)CC(=O)N[C@@H](CCc3cc(F)c(C(F)(F)F)c(F)c3)C(=O)N2C1 [PP1416]	3.8				0.17	A (a compound having 10 or more and less than 20 is denoted as A)	A (a compound having 10 or more and less than 20 is denoted as A)			
CCO[C@@H]1C[C@H]2C(=O)NC3(CCC3)C(=O)N(C)[C@@H](C3CCCC3)C(=O)N(C)[C@H](C(=O)N3CCOCC3)CC(=O)N(C)[C@@H](CC)C(=O)N[C@@H]([C@@H](C)CC)C(=O)N3CC[C@H]3C(=O)N(C)[C@H]3C[C@@H](C)[C@@H](C)CN(C3=O)[C@@H](Cc3ccc(C(F)(F)F)cc3)C(=O)N(C)CC(=O)N[C@@H](CCc3ccc(C(F)(F)F)c(Cl)c3)C(=O)N2C1 [PP1357]	5.4				0.13	B (a compound having 3 or more and less than 10 is denoted as B)	A (a compound having 10 or more and less than 20 is denoted as A)			
CCO[C@@H]1C[C@H]2C(=O)NC3(CCC3)C(=O)N(C)[C@@H](C3CCCC3)C(=O)N(C)[C@H](C(=O)N(C)C)CC(=O)N(C)[C@@H](CC3CCC3)C(=O)N[C@@H]([C@@H](C)CC)C(=O)N(C)CC(=O)N(C)[C@H]3C/C=C\CCN(C3=O)[C@@H](CC3CCC(F)(F)CC3)C(=O)N(C)CC(=O)N[C@@H](CCc3cc(F)c(C(F)(F)F)c(F)c3)C(=O)N2C1 [PP1455, (2S,8S,12R,14S,20S,23S,27S,30S,36S,38Z)-27-(cyclobutylmethyl)-20-cyclopentyl-2-[(4,4-difluorocyclohexyl)methyl]-8-[2-[3,5-difluoro-4-(trifluoromethyl)phenyl]ethyl]-12-ethoxy-N,N,4,19,22,26,32,35-octamethyl-30-[(1S)-1-methylpropyl]-3,6,9,15,18,21,25,28,31,34,42-undecaoxo-spiro[1,4,7,10,16,19,22,26,29,32,35-undecazatricyclo[34.5.1.0^10,14]dotetracont-38-ene-17,1′-cyclobutane]-23-carboxamide]	13.4				0.11	A (a compound having 10 or more and less than 20 is denoted as A)	A (a compound having 10 or more and less than 20 is denoted as A)			
